# Test results reported in ChEMBL document CHEMBL6134913, “Novel Emopamil-Binding Protein Inhibitors for Treating Multiple Sclerosis” (ACS Med Chem Lett, 2025).
# Molecular target: 3-beta-hydroxysteroid-Delta(8),Delta(7)-isomerase (Homo sapiens, UniProt Q15125)
# Test: Displacement of [3H]ifenprodil from FLAG-tagged EBP (unknown origin) overexpressing human Expi293F cells measured after 20 mins by Microbeta microplate counter
# Format: cell-based
# Sequence of 3-beta-hydroxysteroid-Delta(8),Delta(7)-isomerase (Q15125 whole entry): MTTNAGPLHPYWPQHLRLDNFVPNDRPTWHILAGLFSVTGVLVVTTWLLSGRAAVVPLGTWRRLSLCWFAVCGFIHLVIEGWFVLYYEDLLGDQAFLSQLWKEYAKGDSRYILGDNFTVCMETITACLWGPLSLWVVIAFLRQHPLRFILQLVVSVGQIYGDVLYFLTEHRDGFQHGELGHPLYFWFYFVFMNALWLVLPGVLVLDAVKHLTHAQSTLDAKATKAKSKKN
row,Structure (SMILES),IC50
1,CCc1cnccc1CN1CC2(C1)CN(S(=O)(=O)c1ccc(C(F)(F)F)nc1C)C2,< 15 nM
2,Cn1nc(-c2ccccc2)cc1S(=O)(=O)N1CC2(CN(C3CCOCC3)C2)C1,< 15 nM
3,Cn1nc(C2CCCCC2)cc1S(=O)(=O)N1CC2(CN(C3CCOCC3)C2)C1,< 15 nM
4,Cc1cc(C(F)(F)F)nc(C)c1S(=O)(=O)N1CC2(CN(Cc3ccn(C)n3)C2)C1,< 15 nM

# Second part, the compound after the results:
row,IC50,Structure (SMILES)
1,< 15 nM,Cn1nc(C2CCC2)cc1S(=O)(=O)N1CC2(CN(C3CCOCC3)C2)C1
2,< 15 nM,Cc1nc(C(F)(F)C(F)(F)F)ccc1S(=O)(=O)N1CC2(CN(C3CCOCC3)C2)C1
